According to patent US12077503B2, “Substituted cyclic amides and their use as herbicides” (FMC CORPORATION, priority 2015, dated 2024):

Assays:
Assay type in all cases: in vivo
[1] = test system: Kochia (Kochia scoparia); assay: Test A preemergence; settings: Bassia scoparia, pre-emergence, 240 h, preemergence, 0 to 100 scale where 0 is no effect and 100 is complete control, read-out: Kochia plant response rating
Outline: (§1)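 Visual injury scores from 0, no effect, to 100, complete control, were assigned versus untreated controls roughly 10 d after treatment in the greenhouse. Test chemicals, formulated with surfactant in a non-phytotoxic solvent, were applied to planted seeds as a preemergence soil spray or postemergence to one- to two-leaf plants 2 to 10 cm tall, in loam–sand soil.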

[2] = test system: barnyardgrass (Echinochloa crus-galli); assay: Test A preemergence; settings: Echinochloa crus-galli, pre-emergence, 240 h, preemergence, 0 to 100 scale where 0 is no effect and 100 is complete control, read-out: Barnyardgrass plant response rating
Outline: as §1

[3] = test system: giant foxtail (Setaria faberii); assay: Test A preemergence; settings: Setaria faberi, pre-emergence, 240 h, preemergence, 0 to 100 scale where 0 is no effect and 100 is complete control, read-out: Foxtail, Giant plant response rating
Outline: as §1

[4] = test system: pigweed (Amaranthus retroflexus); assay: Test A preemergence; settings: Amaranthus retroflexus, pre-emergence, 240 h, preemergence, 0 to 100 scale where 0 is no effect and 100 is complete control, read-out: Pigweed plant response rating
[5] = test system: ragweed (common ragweed, Ambrosia elatior); assay: Test A preemergence; settings: Ambrosia artemisiifolia, pre-emergence, 240 h, preemergence, 0 to 100 scale where 0 is no effect and 100 is complete control, read-out: Ragweed plant response rating
Outline: as §1

[6] = test system: ryegrass, Italian (Italian ryegrass, Lolium multiflorum); assay: Test A preemergence; settings: Lolium multiflorum, pre-emergence, 240 h, preemergence, 0 to 100 scale where 0 is no effect and 100 is complete control, read-out: Ryegrass, Italian plant response rating
Outline: as §1

[7] = test system: Galium (catchweed bedstraw, Galium aparine); assay: Test A postemergence; settings: Galium, post-emergence, 240 h, Postemergence
Outline: as §1

[8] = test system: Kochia (Kochia scoparia); assay: Test A postemergence; settings: Bassia scoparia, post-emergence, 240 h, Postemergence
Outline: as §1

[9] = test system: barnyardgrass (Echinochloa crus-galli); assay: Test A postemergence; settings: Echinochloa crus-galli, post-emergence, 240 h, Postemergence
Outline: as §1

[10] = test system: blackgrass (Alopecurus myosuroides); assay: Test A postemergence; settings: Alopecurus myosuroides, post-emergence, 240 h, Postemergence
Outline: as §1

[11] = test system: corn (Zea mays); assay: Test A postemergence; settings: Zea mays, post-emergence, 240 h, Postemergence
Outline: as §1

[12] = test system: giant foxtail (Setaria faberii); assay: Test A postemergence; settings: Setaria faberi, post-emergence, 240 h, Postemergence
Outline: as §1

[13] = test system: pigweed (Amaranthus retroflexus); assay: Test A postemergence; settings: Amaranthus retroflexus, post-emergence, 240 h, Postemergence
Outline: as §1

[14] = test system: ragweed (common ragweed, Ambrosia elatior); assay: Test A postemergence; settings: Ambrosia artemisiifolia, post-emergence, 240 h, Postemergence
Outline: as §1

[15] = test system: ryegrass, Italian (Italian ryegrass, Lolium multiflorum); assay: Test A postemergence; settings: Lolium multiflorum, post-emergence, 240 h, Postemergence
Outline: as §1

[16] = test system: wheat (Triticum aestivum); assay: Test A postemergence; settings: Triticum aestivum, post-emergence, 240 h, Postemergence
Outline: as §1

[17] = 125 g ai/ha, visual injury rating, approximately 10 d

## Cc1cc(F)cc([C@H]2CNC(=O)[C@@H]2C(=O)Nc2cccc(F)c2C)c1 [Compound 1308]
[1]; [17]
  pest or weed control at 125 g/ha: 0%
[1]; 500 g ai/ha
  pest or weed control at 500 g/ha: 50%
[2]; [17]
  pest or weed control at 125 g/ha: 90%
[2]; 500 g ai/ha
  pest or weed control at 500 g/ha: 90%
[3]; [17]
  pest or weed control at 125 g/ha: 90%
[3]; 500 g ai/ha
  pest or weed control at 500 g/ha: 90%
[4]; [17]
  pest or weed control at 125 g/ha: 0%
[4]; 500 g ai/ha
  pest or weed control at 500 g/ha: 20%
[5]; [17]
  pest or weed control at 125 g/ha: 0%
[5]; 500 g ai/ha
  pest or weed control at 500 g/ha: 70%
[6]; [17]
  pest or weed control at 125 g/ha: 0%
[6]; 500 g ai/ha
  pest or weed control at 500 g/ha: 0%
[7]; 125 g ai/ha, visual rating about 10 d after treatment, read-out: Galium plant response rating (0 to 100 scale)
  pest or weed control at 125 g/ha: 30%
[7]; 500 g ai/ha, visual injury, 0 to 100 scale (0 no effect, 100 complete control), approx. 10 d, read-out: Plant response rating, Galium
  pest or weed control at 500 g/ha: 50%
[8]; 125 g ai/ha, visual rating about 10 d after treatment, read-out: Kochia plant response rating (0 to 100 scale)
  pest or weed control at 125 g/ha: 0%
[8]; 500 g ai/ha, visual injury, 0 to 100 scale (0 no effect, 100 complete control), approx. 10 d, read-out: Plant response rating, Kochia
  pest or weed control at 500 g/ha: 0%
[9]; 125 g ai/ha, visual rating about 10 d after treatment, read-out: Barnyardgrass plant response rating (0 to 100 scale, 0 no effect, 100 complete control)
  pest or weed control at 125 g/ha: 80%
[9]; 500 g ai/ha, visual injury, 0 to 100 scale (0 no effect, 100 complete control), approx. 10 d, read-out: Plant response rating, Barnyardgrass
  pest or weed control at 500 g/ha: 80%
[10]; 125 g ai/ha, visual rating about 10 d after treatment, read-out: Blackgrass plant response rating (0 to 100 scale)
  pest or weed control at 125 g/ha: 30%
[10]; 500 g ai/ha, visual injury, 0 to 100 scale (0 no effect, 100 complete control), approx. 10 d, read-out: Plant response rating, Blackgrass
  pest or weed control at 500 g/ha: 50%
[11]; 125 g ai/ha, visual rating about 10 d after treatment, read-out: Corn plant response rating (0 to 100 scale)
  plant injury at 125 g/ha: 20%
[11]; 500 g ai/ha, visual injury, 0 to 100 scale (0 no effect, 100 complete control), approx. 10 d
  Corn plant response rating (crop injury, 0 = no effect, 100 = complete kill) at 500 g/ha: 80%
[12]; 125 g ai/ha, visual rating about 10 d after treatment, read-out: Foxtail, Giant plant response rating (0 to 100 scale)
  pest or weed control at 125 g/ha: 20%
[12]; 500 g ai/ha, visual injury, 0 to 100 scale (0 no effect, 100 complete control), approx. 10 d, read-out: Plant response rating, Foxtail, Giant
  pest or weed control at 500 g/ha: 80%
[13]; 125 g ai/ha, visual rating about 10 d after treatment, read-out: Pigweed plant response rating (0 to 100 scale)
  pest or weed control at 125 g/ha: 0%
[13]; 500 g ai/ha, visual injury, 0 to 100 scale (0 no effect, 100 complete control), approx. 10 d, read-out: Plant response rating, Pigweed
  pest or weed control at 500 g/ha: 0%
[14]; 125 g ai/ha, visual rating about 10 d after treatment, read-out: Ragweed plant response rating (0 to 100 scale)
  pest or weed control at 125 g/ha: 0%
[14]; 500 g ai/ha, visual injury, 0 to 100 scale (0 no effect, 100 complete control), approx. 10 d, read-out: Plant response rating, Ragweed
  pest or weed control at 500 g/ha: 20%
[15]; 125 g ai/ha, visual rating about 10 d after treatment, read-out: Ryegrass, Italian plant response rating (0 to 100 scale)
  pest or weed control at 125 g/ha: 0%
[15]; 500 g ai/ha, visual injury, 0 to 100 scale (0 no effect, 100 complete control), approx. 10 d, read-out: Plant response rating, Ryegrass, Italian
  pest or weed control at 500 g/ha: 0%
[16]; 125 g ai/ha, visual rating about 10 d after treatment, read-out: Wheat plant response rating (0 to 100 scale)
  plant injury at 125 g/ha: 20%
[16]; 500 g ai/ha, visual injury, 0 to 100 scale (0 no effect, 100 complete control), approx. 10 d, read-out: Plant response rating, Wheat
  plant injury at 500 g/ha: 40%
